Test: Inhibition of aminoglycoside N-6'-acetyltransferase Ii

CC(C)(COP(=O)(O)OP(=O)(O)OC[C@H]1O[C@@H](n2cnc3c(N)ncnc32)[C@H](O)[C@@H]1OP(=O)(O)O)[C@@H](O)C(=O)NCCC(=O)NCCSCC(=O)NC[C@H]1O[C@H](O[C@H]2[C@H](O)[C@@H](O)[C@H](N)C[C@@H]2N)[C@H](N)[C@@H](O)[C@@H]1O
Ki: 0.076 µM

CC(C)(COP(=O)(O)OP(=O)(O)OC[C@H]1O[C@@H](n2cnc3c(N)ncnc32)[C@H](O)[C@@H]1OP(=O)(O)O)[C@@H](O)C(=O)NCCC(=O)NCCSCCC(=O)NC[C@H]1O[C@H](O[C@H]2[C@H](O)[C@@H](O)[C@H](N)C[C@@H]2N)[C@H](N)[C@@H](O)[C@@H]1O
Ki: 0.043 µM

CC(C)(COP(=O)(O)OP(=O)(O)OC[C@H]1O[C@@H](n2cnc3c(N)ncnc32)[C@H](O)[C@@H]1OP(=O)(O)O)[C@@H](O)C(=O)NCCC(=O)NCCSCCS(=O)(=O)NC[C@H]1O[C@H](O[C@H]2[C@H](O)[C@@H](O)[C@H](N)C[C@@H]2N)[C@H](N)[C@@H](O)[C@@H]1O
Ki: 1.6 µM

CC(C)(COP(=O)(O)OP(=O)(O)OC[C@H]1O[C@@H](n2cnc3c(N)ncnc32)[C@H](O)[C@@H]1OP(=O)(O)O)[C@@H](O)C(=O)NCCC(=O)NCC[S+]([O-])CC(=O)NC[C@H]1O[C@H](O[C@H]2[C@H](O)[C@@H](O)[C@H](N)C[C@@H]2N)[C@H](N)[C@@H](O)[C@@H]1O (some centres not stated)
Ki: 0.06 µM

CC(C)(COP(=O)(O)OP(=O)(O)OC[C@H]1O[C@@H](n2cnc3c(N)ncnc32)[C@H](O)[C@@H]1OP(=O)(O)O)[C@@H](O)C(=O)NCCC(=O)NCC[S+]([O-])CCC(=O)NC[C@H]1O[C@H](O[C@H]2[C@H](O)[C@@H](O)[C@H](N)C[C@@H]2N)[C@H](N)[C@@H](O)[C@@H]1O (some centres not stated)
Ki: 2 µM

CC(C)(COP(=O)(O)OP(=O)(O)OC[C@H]1O[C@@H](n2cnc3c(N)ncnc32)[C@H](O)[C@@H]1OP(=O)(O)O)[C@@H](O)C(=O)NCCC(=O)NCCS(=O)(=O)CC(=O)NC[C@H]1O[C@H](O[C@H]2[C@H](O)[C@@H](O)[C@H](N)C[C@@H]2N)[C@H](N)[C@@H](O)[C@@H]1O
Ki: 0.27 µM

CC(C)(COP(=O)(O)OP(=O)(O)OC[C@H]1O[C@@H](n2cnc3c(N)ncnc32)[C@H](O)[C@@H]1OP(=O)(O)O)[C@@H](O)C(=O)NCCC(=O)NCCS(=O)(=O)CCC(=O)NC[C@H]1O[C@H](O[C@H]2[C@H](O)[C@@H](O)[C@H](N)C[C@@H]2N)[C@H](N)[C@@H](O)[C@@H]1O
Ki: 0.09 µM

— ChEMBL document CHEMBL1152219, “Synthesis and use of sulfonamide-, sulfoxide-, or sulfone-containing aminoglycoside-CoA bisubstrates as mechanistic probes for aminoglycoside N-6'-acetyltransferase” (Bioorg Med Chem Lett, 2008)
